Source: ChEMBL document CHEMBL4007390, “Design, synthesis and biological evaluation of indolin-2-one-based derivatives as potent, selective and efficacious inhibitors of FMS-like tyrosine kinase3 (FLT3)” (Eur J Med Chem, 2017)
pIC50: −log10 of the molar value.

Experiments:
[1] = target: Mitogen-activated protein kinase 1 (Homo sapiens) (UniProt P28482); experiment: Inhibition of human MAPK1 at 0.1 uM relative to control
[2] = target: Epidermal growth factor receptor (Homo sapiens) (UniProt P00533); experiment: Inhibition of human EGFR at 0.1 uM relative to control
MV4-11 [3] = experiment: Antitumor activity against human MV4-11 cells xenografted in Harlan nude mouse assessed as tumor growth inhibition at 80 mg/kg, ig bid for 20 days relative to control; type: functional; settings: MV4-11, po, 480 h, read-out: TGI
[4] = target: Serine/threonine-protein kinase PAK 4 (Homo sapiens) (UniProt O96013); experiment: Inhibition of human PAK4 at 0.1 uM relative to control
[5] = system: Receptor-type tyrosine-protein kinase FLT3 (Homo sapiens), P36888 [D835Y]; settings: 0.1 uM
MV4-11 [6] = experiment: Antitumor activity against human MV4-11 cells xenografted in Harlan nude mouse assessed as tumor growth inhibition at 40 mg/kg, ig bid for 20 days relative to control; type: functional; settings: MV4-11, po, 480 h, read-out: TGI
[7] = target: Tyrosine-protein kinase Lck (Homo sapiens) (UniProt P06239); experiment: Inhibition of human LCK at 0.1 uM relative to control
[8] = target: Aurora kinase A (Homo sapiens) (UniProt O14965); experiment: Inhibition of human Aurora A at 0.1 uM relative to control
[9] = target: Discoidin domain-containing receptor 2 (Homo sapiens) (UniProt Q16832); experiment: Inhibition of human DDR2 at 0.1 uM relative to control
Sequence of Discoidin domain-containing receptor 2 (Homo sapiens) (Q16832 whole entry, the tested form may be a part): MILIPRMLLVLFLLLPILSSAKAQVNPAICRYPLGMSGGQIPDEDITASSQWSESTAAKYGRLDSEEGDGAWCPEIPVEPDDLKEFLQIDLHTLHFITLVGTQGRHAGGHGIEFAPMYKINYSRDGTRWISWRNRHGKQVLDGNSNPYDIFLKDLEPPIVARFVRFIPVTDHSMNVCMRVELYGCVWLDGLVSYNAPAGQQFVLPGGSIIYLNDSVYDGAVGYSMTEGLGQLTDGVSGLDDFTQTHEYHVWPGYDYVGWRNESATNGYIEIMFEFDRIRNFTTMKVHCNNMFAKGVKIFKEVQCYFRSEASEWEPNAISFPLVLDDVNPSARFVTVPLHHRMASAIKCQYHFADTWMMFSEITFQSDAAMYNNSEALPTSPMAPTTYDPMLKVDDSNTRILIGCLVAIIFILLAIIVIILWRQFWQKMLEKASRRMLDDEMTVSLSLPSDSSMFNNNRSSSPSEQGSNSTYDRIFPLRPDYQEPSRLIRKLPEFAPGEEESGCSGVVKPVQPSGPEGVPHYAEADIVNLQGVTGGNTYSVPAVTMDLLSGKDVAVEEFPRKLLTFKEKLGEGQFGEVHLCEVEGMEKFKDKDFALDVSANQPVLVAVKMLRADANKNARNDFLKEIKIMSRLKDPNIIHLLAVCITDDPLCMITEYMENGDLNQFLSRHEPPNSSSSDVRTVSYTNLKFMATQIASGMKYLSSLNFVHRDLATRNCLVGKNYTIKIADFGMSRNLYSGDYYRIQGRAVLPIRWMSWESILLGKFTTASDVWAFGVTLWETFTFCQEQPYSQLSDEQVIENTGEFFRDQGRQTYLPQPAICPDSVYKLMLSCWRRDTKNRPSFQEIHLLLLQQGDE

[10] = target: Serine/threonine-protein kinase B-raf (Homo sapiens) (UniProt P15056); experiment: Inhibition of human BRAF at 0.1 uM relative to control
[11] = Half life in Balb/c nude mouse at 40 mg/kg, po via gavage by LC-MS/MS analysis; type: ADME, organism-based; settings: in vivo
[12] = Toxicity in Harlan nude mouse xenografted with human MV4-11 cells administered ig bid for 20 days; settings: in vivo, po
[13] = target: Platelet-derived growth factor receptor beta (Homo sapiens) (UniProt P09619); experiment: Inhibition of human PDGFRbeta at 0.1 uM relative to control
[14] = system: RAF proto-oncogene serine/threonine-protein kinase (Homo sapiens), P04049 [Y340D,Y341D]; experiment: Inhibition of human RAF1 Y340D/Y341D double mutant at 0.1 uM relative to control
Sequence of RAF proto-oncogene serine/threonine-protein kinase (Homo sapiens), P04049 [Y340D,Y341D] (P04049 whole entry Y340D/Y341D): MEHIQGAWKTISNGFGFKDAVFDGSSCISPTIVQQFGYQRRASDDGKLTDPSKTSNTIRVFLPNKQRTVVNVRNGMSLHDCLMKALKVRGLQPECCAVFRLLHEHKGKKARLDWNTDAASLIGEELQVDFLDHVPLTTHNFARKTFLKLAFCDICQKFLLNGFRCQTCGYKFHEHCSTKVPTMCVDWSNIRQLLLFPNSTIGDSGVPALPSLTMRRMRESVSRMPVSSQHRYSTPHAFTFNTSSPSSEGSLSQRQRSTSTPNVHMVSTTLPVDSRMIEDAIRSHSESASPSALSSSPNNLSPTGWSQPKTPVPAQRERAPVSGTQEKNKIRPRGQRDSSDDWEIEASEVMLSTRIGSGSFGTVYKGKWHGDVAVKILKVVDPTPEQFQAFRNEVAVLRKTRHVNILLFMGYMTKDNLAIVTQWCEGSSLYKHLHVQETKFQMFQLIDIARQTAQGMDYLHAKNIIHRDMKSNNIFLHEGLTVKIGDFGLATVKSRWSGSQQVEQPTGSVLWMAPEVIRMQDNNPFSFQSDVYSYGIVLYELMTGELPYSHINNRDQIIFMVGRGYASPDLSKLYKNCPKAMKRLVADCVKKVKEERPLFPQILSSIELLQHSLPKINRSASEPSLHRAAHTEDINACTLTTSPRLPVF

[15] = target: T1, Platelet-derived growth factor receptor alpha (Homo sapiens, UniProt P16234); experiment: Inhibition of human PDGFRalpha
T1 sequence (P16234 whole entry): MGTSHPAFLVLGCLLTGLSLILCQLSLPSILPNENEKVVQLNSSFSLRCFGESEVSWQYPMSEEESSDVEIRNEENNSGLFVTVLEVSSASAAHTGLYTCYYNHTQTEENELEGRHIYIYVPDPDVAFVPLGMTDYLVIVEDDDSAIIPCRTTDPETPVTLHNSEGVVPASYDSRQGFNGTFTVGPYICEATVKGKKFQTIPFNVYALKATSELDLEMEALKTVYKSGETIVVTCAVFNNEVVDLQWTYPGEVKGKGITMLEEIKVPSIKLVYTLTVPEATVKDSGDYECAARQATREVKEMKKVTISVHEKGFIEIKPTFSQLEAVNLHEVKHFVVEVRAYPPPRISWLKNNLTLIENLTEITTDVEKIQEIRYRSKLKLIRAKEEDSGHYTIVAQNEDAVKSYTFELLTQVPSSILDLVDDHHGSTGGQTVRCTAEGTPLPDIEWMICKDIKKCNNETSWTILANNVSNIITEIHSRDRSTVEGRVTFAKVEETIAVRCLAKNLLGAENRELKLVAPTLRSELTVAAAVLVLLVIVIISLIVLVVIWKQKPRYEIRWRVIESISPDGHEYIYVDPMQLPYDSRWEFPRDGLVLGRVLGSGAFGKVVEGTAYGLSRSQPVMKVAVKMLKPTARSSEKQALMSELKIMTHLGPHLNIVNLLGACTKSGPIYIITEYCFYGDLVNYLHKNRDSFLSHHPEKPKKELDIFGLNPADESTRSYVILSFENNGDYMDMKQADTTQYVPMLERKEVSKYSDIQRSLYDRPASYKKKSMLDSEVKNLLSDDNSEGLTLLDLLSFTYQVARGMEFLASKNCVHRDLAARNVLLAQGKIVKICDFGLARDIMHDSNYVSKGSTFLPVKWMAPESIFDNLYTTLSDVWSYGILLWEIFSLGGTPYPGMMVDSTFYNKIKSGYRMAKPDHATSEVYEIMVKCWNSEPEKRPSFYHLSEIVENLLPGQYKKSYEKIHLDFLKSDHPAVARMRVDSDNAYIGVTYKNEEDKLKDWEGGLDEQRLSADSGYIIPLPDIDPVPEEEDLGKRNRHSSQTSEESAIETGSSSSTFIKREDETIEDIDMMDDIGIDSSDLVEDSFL

HUVEC = experiment: Antiproliferative activity against HUVEC after 72 hrs by MTS assay; type: cell-based; settings: Homo sapiens
Cytochrome P450 3A4 [16] = target: T2, Cytochrome P450 3A4 (Homo sapiens, UniProt P08684); experiment: Inhibition of microsomal CYP3A4 (unknown origin) using testosterone as substrate preincubated for 5 mins followed by NADPH addition by LC-MS/MS analysis; type: ADME
T2 sequence (P08684 whole entry): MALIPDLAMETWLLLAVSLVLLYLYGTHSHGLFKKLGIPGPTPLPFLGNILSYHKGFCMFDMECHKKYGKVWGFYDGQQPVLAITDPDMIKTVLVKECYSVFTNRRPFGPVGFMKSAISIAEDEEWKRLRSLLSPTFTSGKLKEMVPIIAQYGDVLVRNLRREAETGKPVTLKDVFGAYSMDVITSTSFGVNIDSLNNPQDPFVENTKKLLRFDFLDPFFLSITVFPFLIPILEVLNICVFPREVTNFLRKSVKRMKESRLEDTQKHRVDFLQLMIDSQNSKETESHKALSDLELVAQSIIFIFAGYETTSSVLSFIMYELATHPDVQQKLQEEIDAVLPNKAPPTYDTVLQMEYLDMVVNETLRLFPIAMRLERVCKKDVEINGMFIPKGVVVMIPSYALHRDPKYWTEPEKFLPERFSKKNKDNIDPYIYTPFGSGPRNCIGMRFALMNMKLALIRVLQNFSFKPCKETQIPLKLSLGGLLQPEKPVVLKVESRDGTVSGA

[17] = target: Tyrosine-protein kinase JAK2 (Homo sapiens) (UniProt O60674); experiment: Inhibition of human JAK2 at 0.1 uM relative to control
[18] = target: Vascular endothelial growth factor receptor 2 (Homo sapiens) (UniProt P35968); experiment: Inhibition of human VEGFR2 at 0.1 uM relative to control
[19] = target: Receptor-type tyrosine-protein kinase FLT3 (Homo sapiens) (UniProt P36888); settings: 0.1 uM
Description: Inhibition of human FLT3 at 0.1 uM relative to control

[20] = system: Platelet-derived growth factor receptor alpha (Homo sapiens), P16234 [T674I]; experiment: Inhibition of human PDGFRalpha T674I mutant at 0.1 uM relative to control
Sequence of Platelet-derived growth factor receptor alpha (Homo sapiens), P16234 [T674I] (P16234 whole entry T674I): as the sequence (P16234 whole entry) above, with T674I counted along it

[21] = Inhibition of human FLT3 ITD mutant
COLO 205 = experiment: Antiproliferative activity against human COLO205 cells harboring B-Raf after 72 hrs by MTS assay; type: functional, cell-based; settings: COLO 205, 72 h
[22] = target: Vascular endothelial growth factor receptor 3 (Homo sapiens) (UniProt P35916); experiment: Inhibition of human VEGFR3 at 0.1 uM relative to control
MV4-11 [23] = experiment: Antiproliferative activity against human MV4-11 cells harboring FLT3 ITD mutant after 72 hrs by MTS assay; type: functional, cell-based; settings: MV4-11, 72 h
[24] = target: T1, Platelet-derived growth factor receptor alpha; experiment: Inhibition of human PDGFRalpha at 0.1 uM relative to control
[25] = target: Cyclin-dependent kinase 2 (Homo sapiens) (UniProt P24941); experiment: Inhibition of human CDK2 at 0.1 uM relative to control
[26] = target: Tyrosine-protein kinase receptor UFO (Homo sapiens) (UniProt P30530); experiment: Inhibition of human AXL at 0.1 uM relative to control
Sequence of Tyrosine-protein kinase receptor UFO (Homo sapiens) (P30530 whole entry): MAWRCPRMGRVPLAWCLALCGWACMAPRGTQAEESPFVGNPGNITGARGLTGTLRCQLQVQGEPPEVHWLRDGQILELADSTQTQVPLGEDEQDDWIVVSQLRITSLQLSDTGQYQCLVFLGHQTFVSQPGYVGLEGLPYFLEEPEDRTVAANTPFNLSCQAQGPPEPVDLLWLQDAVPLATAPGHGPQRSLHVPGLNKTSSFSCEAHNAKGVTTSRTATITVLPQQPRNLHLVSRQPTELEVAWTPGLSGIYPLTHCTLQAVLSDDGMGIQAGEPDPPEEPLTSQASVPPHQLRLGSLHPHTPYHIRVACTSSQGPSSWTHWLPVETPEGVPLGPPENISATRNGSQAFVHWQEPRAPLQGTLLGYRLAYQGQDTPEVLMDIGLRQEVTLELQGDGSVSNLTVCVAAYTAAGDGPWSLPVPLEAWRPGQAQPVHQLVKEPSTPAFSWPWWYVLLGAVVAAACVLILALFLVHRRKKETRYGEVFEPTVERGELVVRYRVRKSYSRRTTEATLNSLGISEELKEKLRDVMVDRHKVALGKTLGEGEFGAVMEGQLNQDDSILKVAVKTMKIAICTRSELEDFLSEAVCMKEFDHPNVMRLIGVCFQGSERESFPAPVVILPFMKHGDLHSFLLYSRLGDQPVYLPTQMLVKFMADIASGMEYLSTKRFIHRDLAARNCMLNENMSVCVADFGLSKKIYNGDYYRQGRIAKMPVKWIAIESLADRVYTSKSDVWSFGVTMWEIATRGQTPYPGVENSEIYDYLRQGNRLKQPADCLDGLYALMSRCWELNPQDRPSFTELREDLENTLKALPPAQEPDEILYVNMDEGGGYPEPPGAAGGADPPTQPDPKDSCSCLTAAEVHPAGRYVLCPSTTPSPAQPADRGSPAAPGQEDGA

[27] = target: Serine/threonine-protein kinase PLK1 (Homo sapiens) (UniProt P53350); experiment: Inhibition of human PLK1 at 0.1 uM relative to control
Cytochrome P450 3A4 [28] = target: T2, Cytochrome P450 3A4; experiment: Inhibition of microsomal CYP3A4 (unknown origin) using midazolam as substrate preincubated for 5 mins followed by NADPH addition by LC-MS/MS analysis; type: ADME
[29] = target: AMP-activated protein kinase (AMPK) alpha-1/beta-1/gamma-1 (Homo sapiens) (UniProt P54619+Q9Y478+Q13131); experiment: Inhibition of human AMPK alpha1/beta1/gamma1 at 0.1 uM relative to control; type: protein-complex assay
MDA-MB-231 = experiment: Antiproliferative activity against human MDA-MB-231 cells harboring K-Ras/B-Raf after 72 hrs by MTS assay; type: functional, cell-based; settings: MDA-MB-231, 72 h
MV4-11 [30] = experiment: Antitumor activity against human MV4-11 cells xenografted in Harlan nude mouse assessed as tumor growth inhibition at 20 mg/kg, ig bid for 20 days relative to control; type: functional; settings: MV4-11, po, 480 h, read-out: TGI
[31] = target: Receptor-type tyrosine-protein kinase FLT3 (Homo sapiens, UniProt P36888); experiment: Inhibition of human FLT3
[32] = target: Vascular endothelial growth factor receptor 1 (Homo sapiens) (UniProt P17948); experiment: Inhibition of human VEGFR1 at 0.1 uM relative to control
[33] = system: Platelet-derived growth factor receptor alpha (Homo sapiens), P16234 [V561D]; experiment: Inhibition of human PDGFRalpha V561D mutant at 0.1 uM relative to control
Sequence of Platelet-derived growth factor receptor alpha (Homo sapiens), P16234 [V561D] (P16234 whole entry V561D): as the sequence (P16234 whole entry) above, with V561D counted along it

[34] = system: Platelet-derived growth factor receptor alpha (Homo sapiens), P16234 [D842V]; experiment: Inhibition of human PDGFRalpha D842V mutant at 0.1 uM relative to control
[35] = system: Mast/stem cell growth factor receptor Kit (Homo sapiens), P10721 [T670I]; experiment: Inhibition of human KIT T670I mutant at 0.1 uM relative to control
Sequence of Mast/stem cell growth factor receptor Kit (Homo sapiens), P10721 [T670I] (P10721 whole entry T670I): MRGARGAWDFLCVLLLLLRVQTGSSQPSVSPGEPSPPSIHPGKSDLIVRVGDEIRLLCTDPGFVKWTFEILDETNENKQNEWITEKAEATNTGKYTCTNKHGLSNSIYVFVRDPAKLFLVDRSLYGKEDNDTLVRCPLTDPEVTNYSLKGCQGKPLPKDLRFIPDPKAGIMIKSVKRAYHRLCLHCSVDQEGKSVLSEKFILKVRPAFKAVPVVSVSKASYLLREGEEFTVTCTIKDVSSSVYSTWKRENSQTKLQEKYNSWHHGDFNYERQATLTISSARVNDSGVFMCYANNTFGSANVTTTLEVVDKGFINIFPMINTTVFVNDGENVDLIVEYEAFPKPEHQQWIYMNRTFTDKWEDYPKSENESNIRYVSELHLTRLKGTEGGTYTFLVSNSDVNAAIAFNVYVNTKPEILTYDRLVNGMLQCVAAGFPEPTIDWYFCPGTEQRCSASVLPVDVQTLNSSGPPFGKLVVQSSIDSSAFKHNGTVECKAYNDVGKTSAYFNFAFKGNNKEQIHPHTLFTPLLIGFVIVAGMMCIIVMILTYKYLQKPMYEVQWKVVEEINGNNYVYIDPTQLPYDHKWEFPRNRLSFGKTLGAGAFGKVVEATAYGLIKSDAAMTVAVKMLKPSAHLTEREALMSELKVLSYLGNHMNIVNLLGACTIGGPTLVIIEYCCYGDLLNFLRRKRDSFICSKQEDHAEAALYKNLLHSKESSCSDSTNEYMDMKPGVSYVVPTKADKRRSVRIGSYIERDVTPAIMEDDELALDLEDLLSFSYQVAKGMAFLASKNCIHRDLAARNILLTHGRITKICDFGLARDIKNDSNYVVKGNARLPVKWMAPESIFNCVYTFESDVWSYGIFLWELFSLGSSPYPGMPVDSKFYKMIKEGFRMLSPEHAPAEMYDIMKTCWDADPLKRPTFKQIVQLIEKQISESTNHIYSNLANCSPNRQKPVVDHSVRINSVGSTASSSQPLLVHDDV

[36] = Tmax in Balb/c nude mouse at 40 mg/kg, po via gavage by LC-MS/MS analysis; type: ADME, organism-based; settings: in vivo
[37] = target: Receptor-type tyrosine-protein kinase FLT3 (Homo sapiens, UniProt P36888, D835Y); experiment: Inhibition of human FLT3 D835Y mutant
[38] = target: Tyrosine-protein kinase ABL1 (Homo sapiens) (UniProt P00519); experiment: Inhibition of human ABL1 at 0.1 uM relative to control
[39] = target: Tyrosine-protein kinase ZAP-70 (Homo sapiens) (UniProt P43403); experiment: Inhibition of human ZAP70 at 0.1 uM relative to control

Cc1[nH]c(/C=C2\C(=O)Nc3ccc(F)cc32)c(C)c1NC(=O)[C@H]1CCCN1.Cl
inhibition [1]: -7% | inhibition [2]: -1% | inhibition in vivo at 80 mg/kg (MV4-11 [3]): 98.9% | inhibition [4]: 14% | inhibition [5]: 93% | inhibition in vivo at 40 mg/kg (MV4-11 [6]): 100% | inhibition [7]: 43% | inhibition [8]: 2% | inhibition [9]: 7% | inhibition [10]: 0% | half-life [11]: 1.6 h | MTD at 480 h [12]: 160 mg/kg/day | inhibition [13]: 48% | inhibition [14]: 18% | pIC50 [15]: 6.76 | pIC50 (HUVEC): 4.95 | pIC50 (Cytochrome P450 3A4 [16]): < 4.48 | inhibition [17]: -4% | inhibition [18]: 38% | inhibition [19]: 95% | inhibition [20]: 98% | pIC50 [21]: 9.15 | pIC50 (COLO 205): 5.18 | inhibition [22]: 47% | pIC50 (MV4-11 [23]): 7.61 | inhibition [24]: 49% | inhibition [25]: 8% | inhibition [26]: 44% | inhibition [27]: -3% | pIC50 (Cytochrome P450 3A4 [28]): < 4.48 | inhibition [29]: 38% | pIC50 (MDA-MB-231): < 4.70 | inhibition in vivo at 20 mg/kg (MV4-11 [30]): 99.8% | pIC50 [31]: 8.28 | inhibition [32]: 30% | inhibition [33]: 82% | inhibition [34]: 21% | inhibition [35]: 77% | Tmax [36]: 2 h | pIC50 [37]: 8.57 | inhibition [38]: 20% | inhibition [39]: 0%
